Measured values published in patent publication US4785001A, “Ergoline esters” (Farmitalia Carlo Erba S.p.A., priority 1986, dated 1988).

How the values were obtained:
[1] = orientative acute toxicity (LD50), p.o. mice; conditions: mouse, in vivo, po
[2] = electroencephalographic effects (EEG) in the rat; assay type: in vivo; conditions: 20 mg/Kg p.o.
Experimental: Moreover, the compound prepared in Example 1 was tested at the dose of 20 mg/Kg p.o. in the rat and the electroencephalographic effects (EEG) were observed. […] See Buonamici, M., Young, G. A. and Khazon (1982), Neuropharmacology, 21 : 825-829.

**Q.** For CO[C@]12C[C@@H](COC(=O)C3=CN(C)C=CC3)CN(C)[C@@H]1Cc1cn(C)c3cccc2c13 [Example 1, 10-Methoxy-,1,6-dimethyl-8β-(1-methyl-,1,4-dihydro-3-pyridyl-carbonyloxymethyl)-ergoline], which LD50 [1] is on record?
**A.** > 800 mg/kg

**Q.** What about the “electroencephalographic effects (EEG)” value [2] of the same compound?
**A.** increased and long-lasting modifications
